Experimental data reported in US8628771B2, “CA IX-specific inhibitors” (Institute of Virology Slovak Academy of Sciences, priority 2002, dated 2014).
Read-outs that look alike come from different tables or passages of the source.

Columns and labels:
hCA II = target: T1, hCA II (Homo sapiens, UniProt P00918); assay: CA esterase activity assay, isozyme hCA II; type: biochemical
T1 construct: made in house; host or cells: Escherichia coli BL21 (DE3)
Description: Human CA I and CA II cDNAs were expressed in Escherichia coli strain BL21 (DE3) from the plasmids pACA/hCA I and pACA/hCA II described by Lindskog's group [54].
Non-enzymatic hydrolysis rates were always subtracted from the observed rates. […] Inhibitor and enzyme solutions were preincubated together for 10 min at room temperature prior to assay, in order to allow for the formation of the E-I complex. The inhibition constant KI was determined as described in references [44, 76].

hCA IX = hCA IX (Homo sapiens, UniProt Q16790); assay: CA CO2 hydrase activity assay, tumor-associated isozyme hCA IX
Description: An SX.18MV-R Applied Photophysics stopped-flow instrument has been used for assaying the CA CO2 hydration activity assays [44]. […] Inhibitor and enzyme solutions were preincubated together for 10 min at room temperature prior to assay, in order to allow for the formation of the E-I complex.

hCA I = target: T2, hCA I (Homo sapiens, UniProt P00915); assay: CA esterase activity assay, isozyme hCA I; type: biochemical
T2 construct: made in house; host or cells: Escherichia coli BL21 (DE3)

bCA IV = target: T3, bCA IV (Bos taurus, UniProt Q95323); assay: CA esterase activity assay, isozyme bCA IV; type: biochemical, bovine; conditions: read-out: KI bCA IV
T3 construct: CA IV was isolated from bovine lung microsomes as described by Maren et al; from tissue; host or cells: bovine lung microsomes
T3 sequence (Q95323 19-284): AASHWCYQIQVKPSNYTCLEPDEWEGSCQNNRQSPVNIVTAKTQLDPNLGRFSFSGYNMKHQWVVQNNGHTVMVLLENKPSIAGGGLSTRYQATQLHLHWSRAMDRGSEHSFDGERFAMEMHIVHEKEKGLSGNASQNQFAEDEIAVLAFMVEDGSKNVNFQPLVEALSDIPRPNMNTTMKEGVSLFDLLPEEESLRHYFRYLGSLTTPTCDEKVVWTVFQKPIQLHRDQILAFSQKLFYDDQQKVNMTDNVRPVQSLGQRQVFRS

[1] = Table 2, human (cloned) isozymes, read-out: KI hCA II
[2] = read-out: KI hCA IX, Table 2, catalytic domain of the human, cloned isozyme
[3] = Table 2, human (cloned) isozymes, read-out: KI hCA I
[4] = Table 1, isolated from bovine lung microsomes, esterase assay method
[5] = Table 1, human cloned isozymes, esterase assay method, read-out: KI hAC I
[6] = Table 2, from bovine lung microsomes
[7] = read-out: KI hCA IX, Table 1, human cloned isozyme, CO2 hydrase assay method

T2 sequence (P00915 whole entry): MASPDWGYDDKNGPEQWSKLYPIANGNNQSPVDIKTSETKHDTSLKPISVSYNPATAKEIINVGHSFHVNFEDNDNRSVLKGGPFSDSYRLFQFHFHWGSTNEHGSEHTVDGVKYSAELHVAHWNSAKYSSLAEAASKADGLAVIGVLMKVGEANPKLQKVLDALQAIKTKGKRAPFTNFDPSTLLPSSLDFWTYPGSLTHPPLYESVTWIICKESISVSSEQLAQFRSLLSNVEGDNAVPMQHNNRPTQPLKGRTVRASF

SMILES | Ki (hCA II; [1]) | Ki (hCA IX; [2]) | Ki (hCA I; [3]) | Ki (bCA IV; [4]) | also measured
Nc1ccc(S(=O)(=O)Nc2ccccc2S(N)(=O)=O)cc1 [Compound 17] |  |  |  | 144 nM | Ki (hCA I; [5]): 185 nM
Nc1ccc(S(N)(=O)=O)cc1 [Compound 3, sulfanilamide] |  |  |  |  | Ki (bCA IV): 3000 nM
CC(C)c1cc(-c2ccccc2)cc(-c2ccccc2)[n+]1CCc1ccc(S(N)(=O)=O)cc1 [Compound 65] | 350 nM | 78 nM |  |  | Ki (hCA I; read-out: KI hCA I): 94000 nM
NS(=O)(=O)c1cccc2ccccc12 [Compound 23] |  |  |  | 438 nM | Ki (hCA IX; [7]): 30 nM
NS(=O)(=O)c1ccc(CCO)cc1 [Compound 25] |  |  |  | 450 nM | Ki (hCA IX; [7]): 22 nM
Nc1ccc(S(N)(=O)=O)cc1F [Compound 7] |  |  |  | 180 nM | Ki (hCA IX; [7]): 245 nM
CCN[C@H]1CN(CCCOC)S(=O)(=O)c2sc(S(N)(=O)=O)cc21 [BRZ, brinzolamide, reference compound] |  |  |  | 45 nM | 
Nc1cc(C(F)(F)F)c(S(N)(=O)=O)cc1S(N)(=O)=O [Compound 11] |  |  |  | 154 nM | 
Cn1nc(S(N)(=O)=O)sc1=N [Compound 14] |  |  |  |  | Ki (hCA IX; [7]): 30 nM
Nc1ccc(S(=O)(=O)NCc2ccc(S(N)(=O)=O)cc2)cc1 [Compound 18] |  |  |  | 72 nM | 
Nc1ccc(S(N)(=O)=O)cc1I [Compound 10] |  |  |  | 125 nM | Ki (hCA IX; [7]): 285 nM; Ki (hCA I; [5]): 6000 nM
Nc1ccc(S(=O)(=O)Nc2ccc(S(N)(=O)=O)cc2)cc1 [Compound 16] |  |  |  | 129 nM | Ki (hCA IX; [7]): 34 nM
Nc1nccc(Nc2ccc(S(N)(=O)=O)cc2)n1 [Compound 20] |  |  |  | 154 nM | Ki (hCA IX; read-out: KI against CA IX, text discussion of Tables 1-3): 16 to 32 nM; Ki (hCA IX; [7]): 16 nM
Cc1cc(-c2ccccc2)[n+](-c2ccc(S(=O)(=O)Nc3nnc(S(N)(=O)=O)s3)cc2)c(-c2ccccc2)c1 [Compound 86] |  |  |  |  | Ki (hCA II; Table 3, human (cloned) isozymes, esterase assay method, read-out: KI hCA II): 4.78 nM; Ki (hCA II; read-out: KI against CA II): 3.13 to 5.96 nM; Ki (hCA IX): 12 to 35 nM; Ki (hCA IX; read-out: KI hCA IX, Table 3, catalytic domain of the human, cloned isozyme, CO2 hydrase assay method): 12 nM

Second part, led by results:

Ki (hCA II; [1]) | Ki (hCA IX; [2]) | Ki (hCA I; [3]) | SMILES | Ki (bCA IV; [4]) | also measured
61 nM | 100 nM | 12000 nM | CC(C)c1cc(-c2ccccc2)cc(C(C)C)[n+]1Cc1ccc(S(N)(=O)=O)cc1 [Compound 45] |  | 
 | 160 nM | 5000 nM | CC(C)c1cc(-c2ccccc2)cc(C(C)C)[n+]1-c1ccc(S(N)(=O)=O)cc1 [Compound 31] |  | Ki (bCA IV; [6]): 90 nM
321 nM |  | 110000 nM | CC(C)(C)c1cc(-c2ccccc2)cc(-c2ccccc2)[n+]1Cc1ccc(S(N)(=O)=O)cc1 [Compound 51] |  | Ki (bCA IV): 1070 nM
 | 14 nM |  | Cc1cc(C)[n+](CCc2ccc(S(N)(=O)=O)cc2)c(C)c1.[O-][Cl+3]([O-])([O-])[O-] [Compound 55] |  | 
620 nM |  | 305000 nM | CCCCc1cc(-c2ccccc2)cc(-c2ccccc2)[n+]1-c1ccc(S(N)(=O)=O)cc1 [Compound 36] |  | Ki (bCA IV; [6]): 2160 nM
21 nM | 89 nM | 6000 nM | CC(C)c1cc(-c2ccccc2)cc(C(C)C)[n+]1CCc1ccc(S(N)(=O)=O)cc1 [Compound 61] |  | Ki (hCA IX): 64 to 135 nM
 |  | 290000 nM | NS(=O)(=O)c1ccc(-[n+]2c(-c3ccccc3)cc(-c3ccccc3)cc2-c2ccccc2)cc1 [Compound 37] |  | Ki (hCA II; read-out: KI hCA II): 510 nM; Ki (bCA IV; [6]): 2500 nM
370 nM | 80 nM | 112000 nM | CC(C)c1cc(-c2ccccc2)cc(-c2ccccc2)[n+]1Cc1ccc(S(N)(=O)=O)cc1 [Compound 49] |  | 
103 nM | 37 nM | 18000 nM | Cc1cc(-c2ccccc2)cc(-c2ccccc2)[n+]1CCc1ccc(S(N)(=O)=O)cc1 [Compound 62] |  | Ki (hCA IX): 6 to 54 nM
440 nM |  | 125000 nM | CC(C)c1cc(-c2ccccc2)cc(-c2ccccc2)[n+]1-c1ccc(S(N)(=O)=O)cc1 [Compound 35] |  | Ki (bCA IV; [6]): 2100 nM
419 nM | 95 nM | 270000 nM | NS(=O)(=O)c1ccc(CC[n+]2c(-c3ccccc3)cc(-c3ccccc3)cc2-c2ccccc2)cc1 [Compound 68] |  | Ki (hCA IX): 64 to 135 nM
